Assay results as given in article PMC4683934, “Effect of an ethanol extract of Descurainia sophia seeds on Phase I and II drug metabolizing enzymes and P-glycoprotein activity in vitro” (BMC Complementary and Alternative Medicine, 2015).
Values belong to the compound of their own block, whether it stands above or below them.

Columns and labels:
[1] = tested on: LPS-stimulated RAW264.7 cells; design: method as in PMID 23435946, PMID 23935669; conditions: cited from earlier work
CYP2C = conditions: competitive inhibitor; cited from earlier work
human UGT2B17 = tested on: human UGT2B17; design: method as in PMID 22958586; conditions: cited from earlier work
UGT1A1 = target: T1, UGT1A1 (Homo sapiens, UniProt P22309); assay: Luminogenic UGT1A1 inhibition assay; format: biochemical; conditions: specific inhibitor positive control, means ± S.D., read-out: IC50 Inhibitors
T1 construct: purchased Promega V2120
T1 sequence (P22309 26-533): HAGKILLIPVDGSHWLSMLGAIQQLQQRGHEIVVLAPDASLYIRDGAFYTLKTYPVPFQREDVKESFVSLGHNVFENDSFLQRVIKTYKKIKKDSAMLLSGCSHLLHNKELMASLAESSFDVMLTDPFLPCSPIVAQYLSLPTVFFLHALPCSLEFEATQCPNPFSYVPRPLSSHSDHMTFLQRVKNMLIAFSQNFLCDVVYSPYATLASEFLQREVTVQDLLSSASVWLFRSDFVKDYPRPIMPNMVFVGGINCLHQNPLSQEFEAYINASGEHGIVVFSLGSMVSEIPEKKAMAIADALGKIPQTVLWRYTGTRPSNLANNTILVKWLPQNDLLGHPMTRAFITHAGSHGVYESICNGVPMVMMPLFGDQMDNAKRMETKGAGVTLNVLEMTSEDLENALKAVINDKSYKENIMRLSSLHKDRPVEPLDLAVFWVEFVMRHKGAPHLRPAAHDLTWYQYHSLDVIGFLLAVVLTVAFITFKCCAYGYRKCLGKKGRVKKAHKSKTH
Source text: In vitro enzymatic inhibition assays of human Phase I (CYPs) and Phase II (UGTs) DME, and P-gp were done with commercially available luminogenic assay systems. The assay systems were purchased from Promega (Madison, WI, USA), and the microsomes containing the recombinant human CYPs were purchased from Life Technologies (Carlsbad, CA, USA). The microsomes containing human UGT and P-gp were supplied in the luminogenic assay systems (Promega). […]. […]. The enzyme reaction was done according to the manufacturer’s instructions. The luminescent intensity, which is correlated with the enzyme activity, was quantified with a TriStar LB 941 multimode microplate reader (Berthold Technologies, Bad Wildbad, Germany). […]

UGT1A3 = tested on: UGT1A3; design: method as in PMID 23339253; conditions: cited from earlier work
P-gp [2] = target: T2, P-gp (Homo sapiens, UniProt P08183); design: method as in PMID 17256728; conditions: adriamycin-resisitant human breast cancer cells, MCF-7/ADR; cited from earlier work
T2 construct: purchased Promega V3601

P-gp [3] = target: T2, P-gp; assay: Luminogenic P-gp (ATPase) inhibition assay; format: biochemical; conditions: specific inhibitor positive control, means ± S.D., read-out: IC50 Inhibitors
Source text: In vitro enzymatic inhibition assays of human Phase I (CYPs) and Phase II (UGTs) DME, and P-gp were done with commercially available luminogenic assay systems. The assay systems were purchased from Promega (Madison, WI, USA), and the microsomes containing the recombinant human CYPs were purchased from Life Technologies (Carlsbad, CA, USA). The microsomes containing human UGT and P-gp were supplied in the luminogenic assay systems (Promega). […] The enzyme reaction was done according to the manufacturer’s instructions.

T2 sequence (P08183 whole entry): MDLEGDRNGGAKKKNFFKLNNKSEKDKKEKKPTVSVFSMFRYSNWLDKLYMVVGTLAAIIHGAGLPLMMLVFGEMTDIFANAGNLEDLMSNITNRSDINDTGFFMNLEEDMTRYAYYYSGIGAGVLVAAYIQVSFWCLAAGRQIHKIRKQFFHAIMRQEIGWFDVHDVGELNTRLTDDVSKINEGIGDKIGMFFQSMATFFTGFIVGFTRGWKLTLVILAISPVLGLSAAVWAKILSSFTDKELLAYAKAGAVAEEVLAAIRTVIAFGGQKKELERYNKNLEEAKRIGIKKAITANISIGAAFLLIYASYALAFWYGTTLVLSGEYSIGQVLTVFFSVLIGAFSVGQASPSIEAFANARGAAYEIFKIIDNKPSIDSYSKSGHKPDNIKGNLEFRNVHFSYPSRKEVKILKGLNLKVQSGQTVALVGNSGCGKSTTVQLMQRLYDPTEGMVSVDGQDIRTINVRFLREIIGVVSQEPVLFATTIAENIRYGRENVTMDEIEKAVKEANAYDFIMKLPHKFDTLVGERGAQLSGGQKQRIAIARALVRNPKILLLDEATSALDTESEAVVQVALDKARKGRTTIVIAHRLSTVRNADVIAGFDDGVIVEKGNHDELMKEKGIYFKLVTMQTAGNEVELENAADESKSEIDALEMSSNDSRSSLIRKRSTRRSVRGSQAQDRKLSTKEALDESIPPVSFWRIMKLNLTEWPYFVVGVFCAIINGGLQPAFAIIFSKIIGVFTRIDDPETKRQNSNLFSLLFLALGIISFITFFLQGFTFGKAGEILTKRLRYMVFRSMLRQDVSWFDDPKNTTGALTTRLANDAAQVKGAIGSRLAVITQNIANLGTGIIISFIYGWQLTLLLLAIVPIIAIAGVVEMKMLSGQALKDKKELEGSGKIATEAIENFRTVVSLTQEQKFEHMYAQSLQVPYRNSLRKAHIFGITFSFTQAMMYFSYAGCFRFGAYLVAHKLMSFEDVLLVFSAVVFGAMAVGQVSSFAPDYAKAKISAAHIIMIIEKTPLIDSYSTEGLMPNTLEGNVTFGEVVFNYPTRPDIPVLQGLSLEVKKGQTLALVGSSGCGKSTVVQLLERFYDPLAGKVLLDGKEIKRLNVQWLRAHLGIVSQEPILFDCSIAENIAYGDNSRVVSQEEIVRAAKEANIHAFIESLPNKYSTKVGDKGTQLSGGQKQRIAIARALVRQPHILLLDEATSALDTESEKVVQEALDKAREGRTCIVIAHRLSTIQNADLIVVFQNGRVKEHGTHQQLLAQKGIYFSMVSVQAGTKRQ

Compound: O=c1c(O)c(-c2ccc(O)c(O)c2)oc2cc(O)cc(O)c12 [Quercetin]
median effective doses (ED50), inhibition of NO production [1]: 5.5 µM
Ki (CYP2C): 1.67 µM
inhibition of human UGT2B17 (human UGT2B17): inhibits

IC50 (UGT1A1): 180 ± 29.6 µM
Compound: O=C(O)Cc1ccccc1Nc1c(Cl)cccc1Cl [Diclofenac]

Compound: schisantherin A
inhibition of UGT1A3 isotype (UGT1A3): potently inhibit

Compound: COc1cc([C@H]2OC[C@H]3[C@@H]2CO[C@@H]3c2cc(OC)c(O)c(OC)c2)cc(OC)c1O [syringaresinol]
median effective doses (ED50), inhibition of NO production [1]: 10.0 µM
inhibitory effects on P-gp (P-gp [2]): exhibited inhibitory effects

IC50 (P-gp [3]): 3.4 ± 0.32 µM
Compound: [Na+].[Na+].[Na+].[O]=[V]([O-])([O-])[O-] [Na3VO4]

Compound: COc1cc2c(c(OC)c1OC)-c1c(cc(OC)c(OC)c1OC)C[C@H](C)[C@H](C)C2 [deoxyschizandrin]
inhibition of UGT1A3 isotype (UGT1A3): potently inhibit
